Legend:
[1] = system: patients with local progressive unresectable or metastatic GIST; assay: Study in GIST patients: progression-free survival (RECIST Guideline Version 1.1); format: in vivo, human; conditions: 160 mg/body/day oral, 5 consecutive days and 2-day withdrawal period
Protocol: (§1) Purpose: In order to evaluate the effectiveness and safety, etc. of compound 1, this study was conducted for the purpose of evaluating the effectiveness and safety, etc. of the compound 1, targeting patients with local progressive unresectable or metastatic GIST who received the administration of imatinib, sunitinib or regorafenib in the past.
(§2) From the results of the study of Example 1, this study was carried out according to a schedule involving administration for 5 consecutive days and 2-day withdrawal period. The daily dose of the compound 1 was 160 mg/body/day for oral administration. One cycle was set to 21 days. The administration of the compound 1 was continued until the end date of the clinical trial or any of predetermined criterion for discontinuation were applicable.
For the evaluation of an antitumor effect, CT scan was carried out before the start of administration, every 3 weeks for subsequent 6 weeks, every 6 weeks for subsequent 3 months, and then every 8 weeks until the end of the test. Progression-free survival (PFS) stipulated by RECIST Guideline Version 1.1 was evaluated.

[2] = system: patients with local progressive unresectable or metastatic GIST; assay: Study in GIST patients: safety, tolerability and eye disorder; format: in vivo, human; conditions: 160 mg/body/day oral
Protocol: as §1, §2
For the evaluation of eye disorder, interview, visual acuity examination (corrected), intraocular pressure measurement, fundus examination, slit-lamp microscopy, optical coherence tomography (OCT), and color perception examination were carried out at the time of a baseline within 14 days before enrollment and at the completion of administration of the study drug.
Interview, visual acuity examination (corrected), intraocular pressure measurement, fundus examination, optical coherence tomography (OCT), slit-lamp microscopy, and color perception examination were further carried out as much as possible every 12 weeks after the start of administration of the study drug and every 24 weeks on week 48 or later (within ±7 days).
In addition to the determined ophthalmologic examination described above, ophthalmologic examination was appropriately carried out when eye problems were found by regular interview by clinical investigators or by declaration from patients themselves.

rat eye tissue = assay: Histopathological study in rat eye tissue (hematoxylin and eosin, TUNEL); format: in vivo, Sprague-Dawley (SD) rats
solid cancer patients [3] = assay: Phase I study in solid cancer patients: tumor response by RECIST Guideline Version 1.1; format: in vivo, human
Protocol: (§3) Purpose: This study was conducted for the purpose of determining a maximum tolerated dose (MTD) and estimating a recommended dose (RD) and an administration method when compound 1 was administered with one cycle set to 21 days targeting solid cancer patients, and of evaluating safety and observing an antitumor effect when the compound 1 was administered with one cycle set to 21 days targeting the patients, for example.
(§4) Method: The compound 1 was repeatedly administered between meals once a day in Step 1, and orally administered between meals every other day in Step 2. In Step 1, the initial dose was set to 4.8 mg/m^2 (level 1), and the dose of the compound 1 at each level was determined depending on a body surface area. The initial dose of Step 2 (level 1 of Step 2) was set to MTD (mg/m^2/day) of Step 1. The study was continued until the disease progressed or an intolerable adverse event occurred.
(§5) After determination of MTD for once-daily administration, administration was performed by once-daily administration, by alternate-day administration (repeated administration at cycles each involving one-day administration and one-day withdrawal period on the next day), or by a schedule involving administration for 5 consecutive days and 2-day withdrawal period, and evaluation was conducted.
An antitumor effect on tumor was determined according to RECIST Guideline Version 1.1 (European Journal of Cancer 45 (2009) 228-247), and tumor shrinkage was evaluated by comprehensive evaluation on target lesions (lesions equal to or larger than a measurable size depending on a slice width in a diagnosis method (MRI, CT, X ray, etc.) measured at the time of enrollment) and non-target lesions (all lesions except for the target lesions).
The overall response of each case was evaluated according to the following criteria, and the best overall response was evaluated after confirmation of duration of the effect.
The best overall response was evaluated according to the following 5 levels. • CR: After reaching CR first, the CR status was maintained in examination performed after a lapse of at least 4 weeks or longer. • PR: After reaching PR first, the PR status was maintained in examination performed after a lapse of at least 4 weeks or longer. • SD: Neither CR nor PR was attained and no PD was confirmed in examination performed after a lapse of at least 6 weeks or longer from the start of administration. • PD: PD of target lesions or non-target lesions was confirmed without satisfying the criterion of CR, PR and SD, or the appearance of a new lesion was confirmed.
Proportion of cases with best overall response of CR and PR in an analyte population.
Proportion of cases with best overall response of CR, PR, Non-CR/non-PD, or SD continued for 12 weeks or longer in an analyte population.
Patients with non-small cell lung cancer, gastrointestinal stromal tumor, thymic cancer, biliary tract cancer, breast cancer, adenoid cystic cancer, pancreatic cancer, stomach cancer, ovary cancer, skin cancer, neuroblastoma, head and neck cancer, esophageal cancer, kidney cancer, colorectal cancer, sarcoma, mesothelioma, or the like entered the test.

solid cancer patients [4] = assay: Phase I study in solid cancer patients: determination of maximum tolerated dose (MTD); format: in vivo, human; conditions: for MTD: oral
Protocol: as §3, §4
The dose (mg/body) to a study subject was calculated as described below. Dose (mg/body)=Dose (mg/m^2)×Body surface area (m^2)
The body surface area (BSA) was calculated to the second decimal place by rounding a value off to two decimal places using the formula of DuBois given below. The dose (mg/body) was calculated to an integer by rounding a value off to the closest whole number, and less than 2 mg was cut off because the minimum tablet dose in this study was 2 mg. BSA=([Body weight (kg)]0.425×[Body height (cm)]0.725)×0.007184

solid cancer patients [5] = assay: Phase I study in solid cancer patients: eye disorder related to treatment (ophthalmologic examination, CTCAE Ver. 4.03); format: in vivo
Protocol: The initial dose of Step 2 (level 1 of Step 2) was set to MTD (mg/m^2/day) of Step 1. The study was continued until the disease progressed or an intolerable adverse event occurred.
as §5
In this test, ophthalmologic examination was conducted in order to evaluate eye disorder.
The ophthalmologic examination was carried out before enrollment, in the duration of administration, and during follow-up. In the duration of administration, ophthalmologic interview, visual acuity examination (corrected), intraocular pressure examination, fundus examination, slit-lamp microscopy, optical coherence tomography (OCT), and color perception examination were carried out for 21 days±1 day from the start of administration. Observation and examination before enrollment were carried out as immediately before the enrollment as possible. In addition to the determined ophthalmologic examination described above, ophthalmologic examination was appropriately carried out when eye problems were found by regular interview by clinical investigators or by declaration from patients themselves.

[6] = Quantification of plasma, tumor and retinal tissue exposure in tumor-bearing rats; format: in vivo, F344 nude rats
Protocol: After the administration, plasma, the retina, and tumor were collected according to a sampling schedule. The retina or tumor samples were homogenized in phosphate-buffered saline. The plasma and the homogenized samples were analyzed by liquid chromatography-tandem mass spectrometry or high-performance liquid chromatography. The pharmacokinetics of the compound 1 were calculated by use of the non-compartmental analysis method (Methods Mol Biol 2012; 929: 377-89).

[7] = Quantification of plasma and retinal tissue exposure after intravenous administration; format: in vivo, F344 nude rats; conditions: 30 minutes and 6 hours after administration
Protocol: Method: Compound 1 was administered to tumor-bearing F344 nude rats by intravenous administration. Plasma and the retina were collected 30 minutes and 6 hours after the administration. The retina samples were homogenized in phosphate-buffered saline. The plasma and the homogenized samples were analyzed by liquid chromatography-tandem mass spectrometry or high-performance liquid chromatography. The pharmacokinetics of the compound 1 were calculated by use of the non-compartmental analysis method (Methods Mol Biol 2012; 929: 377-89).

[8] = system: progressive or unresectable GIST; conditions: group given regorafenib, third-line treatment of progressive or unresectable GIST; cited from earlier work
[9] = 5 consecutive days and 2-day withdrawal period
[10] = 12 mg/kg/day oral every day for 2 weeks, eyes collected 24 hours after final dose
[11] = rats, administered for consecutive days (Non-Patent Literature 6)
[12] = administration for consecutive days
[13] = QD Step 1 Dose escalation, Lv. 6 (107.5 mg/m^2) n = 6
[14] = QOD Step 2 Expansion (340 mg/body) n = 6
[15] = oral administration, tumor-bearing rats
[16] = 10.0 mg/kg/day intravenous three times a week for 2 weeks, eyes collected 24 hours after final dose

SMILES: CCc1cc(C(N)=O)ccc1-n1nc(C(C)C)c2c(-n3cnc(-c4cnn(C)c4)c3)ccnc21 [compound 1, 3-Ethyl-4-[3-(1-methylethyl)-4-[4-(1-methyl-1H-pyrazol-4-yl)-1H-imidazol-1-yl]-1H-pyrazolo[3,4-b]pyridin-1-yl]benzamide]
- median PFS [1]: 4.4 months
- frequency of occurrence of eye disorder [2, 9]: 20%
- grade of eye disorder in all the patients [2, 9]: grade 1
- tolerability [2, 9]: good tolerability
- related adverse events observed ([2]; 5 consecutive days and 2-day withdrawal, reversible by discontinuation or decrease in dose): digestive tract disorder and elevated plasma creatinine levels
- elevation of the number of TUNEL-positive apoptotic cells (rat eye tissue; [10]): not observed
- histopathological change in the outer nuclear layer of the retina (rat eye tissue; [10]): did not cause any histopathological change
- ocular toxicity (rat eye tissue; [11]): without exhibiting ocular toxicity
- DCR (≥12 weeks), % of patients (solid cancer patients [3]; QD × 5, n = 18): (38.9) %
- DCR (≥12 weeks), number of patients (solid cancer patients [3]; QD × 5, n = 18): 7
- NE, % of patients (solid cancer patients [3]; QD × 5, n = 18): (5.6) %
- NE, number of patients (solid cancer patients [3]; QD × 5, n = 18): 1
- PD, % of patients (solid cancer patients [3]; QD × 5, n = 18): (44.4) %
- PD, number of patients (solid cancer patients [3]; QD × 5, n = 18): 8
- PR, % of patients (solid cancer patients [3]; QD × 5, n = 18): (0.0) %
- PR, number of patients (solid cancer patients [3]; QD × 5, n = 18): 0
- RR, % of patients (solid cancer patients [3]; QD × 5, n = 18): (0.0) %
- RR, number of patients (solid cancer patients [3]; QD × 5, n = 18): 0
- DCR (≥12 weeks), % of patients (solid cancer patients [3]; QD, n = 16): (31.3) %
- DCR (≥12 weeks), number of patients (solid cancer patients [3]; QD, n = 16): 5
- NE, % of patients (solid cancer patients [3]; QD, n = 16): (12.5) %
- NE, number of patients (solid cancer patients [3]; QD, n = 16): 2
- PD, % of patients (solid cancer patients [3]; QD, n = 16): (31.3) %
- PD, number of patients (solid cancer patients [3]; QD, n = 16): 5
- PR, % of patients (solid cancer patients [3]; QD, n = 16): (12.5) %
- PR, number of patients (solid cancer patients [3]; QD, n = 16): 2
- RR, % of patients (solid cancer patients [3]; QD, n = 16): (12.5) %
- RR, number of patients (solid cancer patients [3]; QD, n = 16): 2
- DCR (≥12 weeks), % of patients (solid cancer patients [3]; QOD, n = 26): (14.4) %
- DCR (≥12 weeks), number of patients (solid cancer patients [3]; QOD, n = 26): 4
- NE, % of patients (solid cancer patients [3]; QOD, n = 26): (3.8) %
- NE, number of patients (solid cancer patients [3]; QOD, n = 26): 1
- PD, % of patients (solid cancer patients [3]; QOD, n = 26): (57.7) %
- PD, number of patients (solid cancer patients [3]; QOD, n = 26): 15
- PR, % of patients (solid cancer patients [3]; QOD, n = 26): (3.8) %
- PR, number of patients (solid cancer patients [3]; QOD, n = 26): 1
- RR, % of patients (solid cancer patients [3]; QOD, n = 26): (3.8) %
- RR, number of patients (solid cancer patients [3]; QOD, n = 26): 1
- MTD converted to the fixed dose (solid cancer patients [4]; [12]): 160 mg/body/day
- MTD (solid cancer patients [4]; [12]): 107.5 mg/m^2/day
- MTD converted to the fixed dose (solid cancer patients [4]; alternate-day administration): 340 mg/body/day
- MTD (solid cancer patients [4]; alternate-day administration): 210 mg/m^2/day
- Eye Disorder, G2 (solid cancer patients [5]; QD Step 1 Dose escalation, Lv. 1 to 5 (4.8-76.8 mg/m^2) n = 7): 1 (14.3) n (%)
- Eye Disorder, G2 (solid cancer patients [5]; [13]): 2 (33.3) n (%)
- Eye disorder, G1 (solid cancer patients [5]; [13]): 3 (50.0) n (%)
- Eye Disorder, ≥G3 (solid cancer patients [5]; QD Step 1 Dose escalation, Lv. 7 (150.5 mg/m^2) n = 3): 2 (66.7) n (%)
- Eye disorder, G1 (solid cancer patients [5]; QD × 5 (5-day administration 2-day drug holiday) Step 1 Expansion (160 mg/body) n = 19): 5 (26.3) n (%)
- Eye disorder, G1 (solid cancer patients [5]; QOD Step 2 Dose escalation, Lv. 1 to 2 (107.5-150.5 mg/m^2) n = 9): 2 (22.2) n (%)
- Eye disorder, G1 (solid cancer patients [5]; QOD Step 2 Dose escalation, Lv. 3 (210.7 mg/m^2) n = 6): 1 (16.7) n (%)
- Eye disorder, G1 (solid cancer patients [5]; QOD Step 2 Dose escalation, Lv. 4 (295.0 mg/m^2) n = 5): 1 (16.7) n (%)
- Eye Disorder, G2 (solid cancer patients [5]; [14]): 1 (20.0) n (%)
- Eye disorder, G1 (solid cancer patients [5]; [14]): 3 (60.0) n (%)
- degree of eye disorder at MTD (solid cancer patients [5]; alternate-day administration group): limited to grade 1
- degree of eye disorder at MTD (solid cancer patients [5]; group given administration for 5 consecutive days and 2-day withdrawal period): limited to grade 1
- Eye Disorder, G2 (solid cancer patients [5]; human, in vivo): 4 (6.6) n (%)
- Eye Disorder, ≥G3 (solid cancer patients [5]; human, in vivo): 2 (3.3) n (%)
- Eye disorder, G1 (solid cancer patients [5]; human, in vivo): 14 (23.0) n (%)
- side effect on vision (solid cancer patients [5]; phase I clinical trial, administration for consecutive days): caused a side effect for vision impairment
- distribution in tumor, retina and plasma [6, 15]: larger amount in tumor than in the retina and plasma
- time to removal from the retina [6, 15]: ≤ 24 h
- time to elimination from the rat retina [6, 11]: ≤ 24 h
- distribution in retina versus plasma [7]: lower in the retina than in plasma

SMILES: CCNC(=O)c1noc(-c2cc(C(C)C)c(O)cc2O)c1-c1ccc(CN2CCOCC2)cc1 [NVP-AUY922, reference compound]
- histopathological change in the outer nuclear layer of the retina (rat eye tissue; [16]): marked degeneration and disarrangement
- number of TUNEL-positive apoptotic cells (rat eye tissue; [16]): considerably increase
- presence in the retina 24 hours after administration ([6]; intravenous administration, tumor-bearing rats): detected from the retina even 24 hours after administration

SMILES: CNC(=O)c1cc(Oc2ccc(NC(=O)Nc3ccc(Cl)c(C(F)(F)F)c3)c(F)c2)ccn1 [regorafenib]
- median PFS [8]: 4.8 month
